Data: patent US5736556A, “Tropane-2-aldoxime derivatives as nevro transmitter reuptake inhibitors” (NeuroSearch A/S, priority 1994, dated 1998)
Structures can show the parent of a compound that is named as a salt.

Key:
[1] = target: T1, ^3 H-noradrenaline uptake (noradrenaline transporter) (Rattus norvegicus, UniProt Q63380); test: In vitro inhibition of ^3 H-noradrenaline (^3 H-NA) uptake in hippocampal synaptosomes; format: biochemical, rat (male Wistar); settings: ^3 H-NA 1 nM, 90 min at 37° C.
T1 construct: Hippocampi from male Wistar rats (150-200 g) are homogenized; from tissue; host or cells: P2 synaptosomes of hippocampus, male Wistar rats
T1 sequence (Q63380 1-617): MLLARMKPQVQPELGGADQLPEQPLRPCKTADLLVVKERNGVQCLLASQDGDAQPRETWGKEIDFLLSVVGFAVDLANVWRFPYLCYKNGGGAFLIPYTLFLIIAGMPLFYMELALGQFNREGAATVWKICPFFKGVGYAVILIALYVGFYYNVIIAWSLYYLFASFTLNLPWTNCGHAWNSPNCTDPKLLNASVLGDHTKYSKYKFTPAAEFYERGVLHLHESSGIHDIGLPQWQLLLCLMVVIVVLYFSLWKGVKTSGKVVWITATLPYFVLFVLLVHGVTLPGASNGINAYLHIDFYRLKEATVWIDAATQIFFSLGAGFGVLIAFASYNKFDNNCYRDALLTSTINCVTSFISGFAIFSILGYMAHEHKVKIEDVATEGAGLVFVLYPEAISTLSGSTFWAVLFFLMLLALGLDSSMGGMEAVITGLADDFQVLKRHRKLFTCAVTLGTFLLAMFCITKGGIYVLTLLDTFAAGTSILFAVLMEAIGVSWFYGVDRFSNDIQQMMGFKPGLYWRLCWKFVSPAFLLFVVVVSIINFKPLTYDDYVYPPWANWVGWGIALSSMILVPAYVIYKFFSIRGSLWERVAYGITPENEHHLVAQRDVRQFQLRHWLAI
From the text: The compounds of the invention have also been tested for their ability to inhibit reuptake of dopamine(DA) noradrenalin(NA) and serotonin(5-HT) in synaptosomes.
Specific neurotransmitter transporters/uptake sites on nerve terminals presumably function to terminate neuronal signaling by removing the neurotransmitters dopamine, noradrenaline and serotonin, respectively, from the synaptic cleft. The activity of the transporter integral proteins can be measured in vitro by synaptosomal uptake of ^3 H-dopamine, ^3 H-noradrenaline and ^3 H-serotonine, respectively.
In vitro inhibition of ^3 H-noradrenaline (^3 H-NA) uptake in hippocampal synaptosomes
Tissue preparation: Preparations are performed at 0°-4° C. unless otherwise indicated. Hippocampi from male Wistar rats (150-200 g) are homogenized for 5-10 sec in 100 volumes of ice-cold 0.32M sucrose containing 1 mM pargyline using an Ultra-Turrax homogenizer. Monoamine oxidase activity will be inhibited in the presence of pargyline. The homogenate is centrifuged at 1000×g for 10 min. The resulting supernatant is then centrifuged at 27,000×g for 50 min and the supernatant is discarded. The pellet (P2) is resuspended in oxygenated (equilibrated with an atmosphere of 96% O2 : 4% CO2 for at least 30 min) Krebs-Ringer incubation buffer (2000 ml per g of original tissue) at pH 7.2 containing 122 mM NaCl, 0.16 mM EDTA, 4.8 mM KCl, 12.7 mM Na2 HPO4, 3.0 mM NaH2 PO4, 1.2 mM MgSO4, 0.97 mM CaCl2, 10 mM glucose and 1 mM ascorbic acid.
Assay: Aliquots of 4.0 ml tissue suspension are added to 100 μl of test solution and 100 μl of ^3 H-NA (1 nM, final concentration), mixed and incubated for 90 min at 37° C. Non-specific uptake is determined using desipramine (1 μM, final concentration). After incubation the samples are poured directly onto Whatman GF/C glass fibre filters under suction. […] The amount of radioactivity on the filters is determined by conventional liquid scintillation counting. Specific uptake is calculated as the difference between total uptake and non-specific uptake. […]

[2] = system: immobility time of mice suspended by the tail; test: Tail Suspension; format: in vivo, mice (female NMRI); settings: Mus musculus, 0.5 h, oral, 30 min before test, dose reducing the immobility to 100 sec
Procedure: A decrease in the immobility time by mice suspended in their tail is seen after systemic administration of central stimulants and by antidepressants (Steru, L., Chermat, R., Thierry, B. & Simon, P. (1985) The tail suspension test: A new method for screening antidepressants in mice. Psychopharmacology 85:367-370.).
Female NMRI mice (20-25 g) habituated to the room (12 hours light/dark) for at least 16 hours and housed 25 per cage are used. The mice are suspended by the tail with adhesive tape to a rod 30 cm above the lab. bench 30 min after an oral administation of vehicle or drug. For the next 6 min the accumulated duration of immobility defined as no movements by the body or extremities (however head movements are not defined as movements) are noted, Six mice per dose are used.
Saline or vehicle treated mice have immobility time scores between 160-180 sec in average. An ED50 -value is calculated by graphical interpolation from at least 3 doses as the dose reducing the immobility to 100 sec.

dopamine transporter = target: T2, dopamine transporter (Rattus norvegicus, UniProt P23977); test: In vitro inhibition of ^3 H-WIN 35428 binding (corpus striatum); design: species or system rat (male Wistar); settings: rat corpus striatum, ^3 H-WIN 35428 1 nM, 60 min at 2° C.; read-out: in vitro IC50
T2 construct: Corpus striatum from male Wistar rats (150-200 g) is homogenized; from tissue; host or cells: corpus striatum of male Wistar rats
T2 sequence (P23977 whole entry): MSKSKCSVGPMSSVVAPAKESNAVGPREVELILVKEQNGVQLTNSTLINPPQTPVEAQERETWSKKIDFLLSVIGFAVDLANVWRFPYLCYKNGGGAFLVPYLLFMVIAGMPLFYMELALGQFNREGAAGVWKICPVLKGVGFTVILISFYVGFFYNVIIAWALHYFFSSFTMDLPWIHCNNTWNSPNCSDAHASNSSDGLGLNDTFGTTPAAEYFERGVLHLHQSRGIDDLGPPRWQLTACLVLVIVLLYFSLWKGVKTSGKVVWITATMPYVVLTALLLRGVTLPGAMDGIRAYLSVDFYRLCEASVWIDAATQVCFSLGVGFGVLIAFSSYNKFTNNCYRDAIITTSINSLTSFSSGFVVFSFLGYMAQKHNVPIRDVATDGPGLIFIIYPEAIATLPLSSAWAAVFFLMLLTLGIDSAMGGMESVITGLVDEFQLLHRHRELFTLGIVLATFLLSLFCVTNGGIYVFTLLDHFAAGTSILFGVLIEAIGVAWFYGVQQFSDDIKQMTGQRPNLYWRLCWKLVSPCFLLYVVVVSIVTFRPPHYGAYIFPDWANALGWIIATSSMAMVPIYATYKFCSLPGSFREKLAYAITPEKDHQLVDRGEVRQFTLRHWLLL
From the text: The compounds of the present invention have been tested for their ability to bind to the dopamine transporter in the following tests for in vitro and in vivo inhibition of ^3 H-WIN 35428.
In vitro inhibition of ^3 H-WIN 35428 binding
Dopamine transporters/uptake sites on nerve terminals presumably function to terminate neuronal signaling by removing dopamine from the synaptic cleft. The activity or presence of the dopamine transporter integral protein can be measured in vitro with synaptosomal uptake of ^3 H-dopamine or membrane binding assays with ^3 H-ligands known to bind to the transporter.
Numerous ligands of several structural types have been reported to bind at the dopamine uptake site, but it remains questionable whether their binding sites are identical to that of cocaine.
Tissue preparation: Preparations are performed at 0°-4° C. unless otherwise indicated. Corpus striatum from male Wistar rats (150-200 g) is homogenized for 5-10 sec in 10 ml NaH2 PO4 (50 mM, pH 7.4) using an Ultra-Turrax homogenizer. The suspension is centrifuged at 27,000×g for 15 min. The supernatant is discarded and the pellet is resuspended in 50 mM NaH2 PO4, pH 7.4 (1000 ml per g of original tissue) and used for binding assays.
Assay: Aliquots of 0.5 ml tissue are added to […] of ^3 H-WIN 35428 (1 nM, final concentration), mixed and incubated for 60 min at 2° C. Non-specific binding is determined using cocaine ([…], final concentration). After incubation the samples are added 5 ml of ice-cold buffer and poured directly onto Whatman GF/C glass fibre filters under suction and immediately washed with 5 ml ice-cold buffer. The amount of radioactivity on the filters is determined by conventional liquid scintillation counting. Specific binding is total binding minus non-specific binding.
25-75% inhibition of specific binding must be obtained, before calculation of an IC50. The test value is given as IC50 (the concentration (μM) of the test substance which inhibits the specific binding of ^3 H-WIN 35428 by 50%).

CON=C[C@@H]1[C@@H](c2ccc(Cl)c(Cl)c2)C[C@@H]2CC[C@H]1N2C [(1R,2R,3S)-3-(3,4-dichlorophenyl)-tropane-2-O-methyl-aldoxime, H2 SO4]
IC50 [1]: 1.3 nM
ED50 [2]: 0.1 mg/kg
IC50 (dopamine transporter): 3 nM

CON=C[C@@H]1[C@@H](c2ccc(Cl)c(Cl)c2)C[C@@H]2CC[C@H]1N2 [(1R,2R,3S)-N-Normethyl-3-(3,4-dichlorophenyl)tropane-2-O-methyl-aldoxime, hydrochloride]
IC50 [1]: 1.3 nM
ED50 [2]: 0.95 mg/kg
IC50 (dopamine transporter): 6 nM
